Assay results as given in ChEMBL document CHEMBL1201862, “PubChem BioAssay data set” (2004).
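Exposure lasted 48 hours, with cells grown in 96-well plates and compounds tested at five concentrations. The concentration for 50% growth inhibition is given as GI50.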 Active and inactive are the calls of the source. No stated cut-off is given here; in the data, active = GI50 up to about 1.1 µM and inactive = higher.

How the values were obtained:
Experiment in all cases: NCI-60 cell line screen, 48 h
A498 = tested on: A498
HCC 2998 = tested on: HCC 2998
HOP-92 = tested on: HOP-92
K562 = tested on: K562
KM12 = tested on: KM12
M14 = tested on: M14
MCF7 = tested on: MCF7
MDA-N = tested on: MDA-N
MOLT-4 = tested on: MOLT-4
NCI-H226 = tested on: NCI-H226
NCI/ADR-RES = tested on: NCI/ADR-RES
PC-3 = tested on: PC-3
SF-268 = tested on: SF-268
SK-MEL-2 = tested on: SK-MEL-2
SN12C = tested on: SN12C
SNB-75 = tested on: SNB-75
U-251 = tested on: U-251
UACC-257 = tested on: UACC-257
UACC-62 = tested on: UACC-62
DMS-273 = tested on: DMS-273

| SMILES | GI50 (A498) | GI50 (HCC 2998) | GI50 (HOP-92) | GI50 (K562) | GI50 (KM12) | GI50 (M14) | GI50 (MCF7) | GI50 (MDA-N) | GI50 (MOLT-4) | GI50 (NCI-H226) | GI50 (NCI/ADR-RES) | GI50 (PC-3) | GI50 (SF-268) | GI50 (SK-MEL-2) | GI50 (SN12C) | GI50 (SNB-75) | GI50 (U-251) | GI50 (UACC-257) | GI50 (UACC-62) | GI50 (DMS-273) |
| --- | --- | --- | --- | --- | --- | --- | --- | --- | --- | --- | --- | --- | --- | --- | --- | --- | --- | --- | --- | --- |
| COc1cccc2nc3c(C(=O)NCCN(C)C)cccc3cc12 | 0.307 µM (active) | 3.44 µM (inactive) | 1.21 µM (inactive) | 1.95 µM (inactive) | 2.3 µM (inactive) | 1.64 µM (inactive) | 1.12 µM (active) | 2.18 µM (inactive) | 0.325 µM (active) | 1.4 µM (inactive) | 2.71 µM (inactive) | 2.34 µM (inactive) | 3.24 µM (inactive) | 4.13 µM (inactive) | 1.16 µM (inactive) | 4.88 µM (inactive) | 1.44 µM (inactive) | 1.92 µM (inactive) | 2.23 µM (inactive) | – |
| C[C@]12CCC(=O)[C@@H](CCC3=CC(=O)C=CC3=O)[C@@H]1CCC2=O | 17.5 µM (inactive) | 15.3 µM (inactive) | 14.2 µM (inactive) | 2.14 µM (inactive) | 14.3 µM (inactive) | 17.8 µM (inactive) | 13.9 µM (inactive) | 23.8 µM (inactive) | 5.21 µM (inactive) | 20.7 µM (inactive) | 38 µM (inactive) | 12.9 µM (inactive) | 14.3 µM (inactive) | 11.7 µM (inactive) | 37.4 µM (inactive) | 5.48 µM (inactive) | 20.7 µM (inactive) | 17.8 µM (inactive) | 16.6 µM (inactive) | – |
| COC(=O)c1sc(=S)sc1SCc1ccc(CSc2sc(=S)sc2C(=O)OC)cc1 | > 100 µM (inactive) | > 100 µM (inactive) | > 100 µM (inactive) | > 100 µM (inactive) | > 100 µM (inactive) | > 100 µM (inactive) | > 100 µM (inactive) | > 100 µM (inactive) | > 100 µM (inactive) | > 100 µM (inactive) | > 100 µM (inactive) | > 100 µM (inactive) | > 100 µM (inactive) | > 100 µM (inactive) | > 100 µM (inactive) | > 100 µM (inactive) | > 100 µM (inactive) | > 100 µM (inactive) | > 100 µM (inactive) | – |
| CC1CNC(c2ccc(CN3CCC(CCCC4CCN(Cc5ccc(C6=NC(C)CN6)cc5)CC4)CC3)cc2)=N1 (stereo not drawn) | > 100 µM (inactive) | 14.8 µM (inactive) | 26 µM (inactive) | 35 µM (inactive) | 16.9 µM (inactive) | 62.5 µM (inactive) | 19.8 µM (inactive) | 17.5 µM (inactive) | 19.4 µM (inactive) | 32.9 µM (inactive) | > 100 µM (inactive) | 36.8 µM (inactive) | > 100 µM (inactive) | 21.7 µM (inactive) | 84.7 µM (inactive) | 23.4 µM (inactive) | 35 µM (inactive) | 18.8 µM (inactive) | 59.8 µM (inactive) | – |
| N#Cc1ccccc1NC(=O)c1ccccc1 | > 100 µM (inactive) | – | > 100 µM (inactive) | > 100 µM (inactive) | > 100 µM (inactive) | – | – | – | – | – | – | – | > 100 µM (inactive) | > 100 µM (inactive) | > 100 µM (inactive) | 68.5 µM (inactive) | > 100 µM (inactive) | > 100 µM (inactive) | > 100 µM (inactive) | > 100 µM (inactive) |
| Cc1c2ncccc2c(C)c2c1[nH]c1ccc(O)cc12 | 13.3 µM (inactive) | 6.3 µM (inactive) | 4.54 µM (inactive) | 3.44 µM (inactive) | 3.6 µM (inactive) | 4.89 µM (inactive) | 2.65 µM (inactive) | 4.93 µM (inactive) | 0.478 µM (active) | 6.68 µM (inactive) | 5.27 µM (inactive) | 2.76 µM (inactive) | 4.94 µM (inactive) | 18.5 µM (inactive) | 2.24 µM (inactive) | 4.07 µM (inactive) | 2.4 µM (inactive) | 11.5 µM (inactive) | 10.2 µM (inactive) | – |
| Nc1nc(SCCC/C=C/B(O)O)nc2c1ncn2C1OC(COP(=O)(O)O)C(O)C1O (stereo not drawn) | > 203 µM (inactive) | – | > 203 µM (inactive) | > 203 µM (inactive) | > 203 µM (inactive) | > 203 µM (inactive) | – | – | > 203 µM (inactive) | > 203 µM (inactive) | – | – | > 203 µM (inactive) | > 203 µM (inactive) | > 203 µM (inactive) | > 203 µM (inactive) | > 203 µM (inactive) | > 203 µM (inactive) | > 203 µM (inactive) | > 203 µM (inactive) |
| C=C1C(=O)O[C@@H]2C[C@@H](C)[C@@H]3[C@@H](OC4OC(COC(C)=O)C(O)C(O)C4O)CC(=O)[C@@]3(C)C[C@H]12 (stereo partly drawn) | 15.5 µM (inactive) | 1.75 µM (inactive) | 0.902 µM (active) | 0.596 µM (active) | 11 µM (inactive) | 1.43 µM (inactive) | 0.728 µM (active) | 1.66 µM (inactive) | 1.94 µM (inactive) | 11 µM (inactive) | 0.855 µM (active) | 10.3 µM (inactive) | 9.77 µM (inactive) | 7.5 µM (inactive) | 1.54 µM (inactive) | 7.31 µM (inactive) | 7.19 µM (inactive) | 1.68 µM (inactive) | 1.55 µM (inactive) | – |
| COC(=O)C1=CON2C3CC4CC(C3)CC(C4)C12C (stereo not drawn) | > 100 µM (inactive) | > 100 µM (inactive) | > 100 µM (inactive) | > 100 µM (inactive) | > 100 µM (inactive) | > 100 µM (inactive) | > 100 µM (inactive) | > 100 µM (inactive) | > 100 µM (inactive) | > 100 µM (inactive) | > 100 µM (inactive) | > 100 µM (inactive) | > 100 µM (inactive) | > 100 µM (inactive) | > 100 µM (inactive) | > 100 µM (inactive) | > 100 µM (inactive) | > 100 µM (inactive) | > 100 µM (inactive) | – |
| CC(=O)OCC(OC(C)=O)C(OC(C)=O)C(OC(C)=O)C(=O)CNn1c(-c2ccc(C)cc2)nc2ccccc2c1=O (stereo not drawn) | > 100 µM (inactive) | – | – | > 100 µM (inactive) | > 100 µM (inactive) | > 100 µM (inactive) | – | – | 82.8 µM (inactive) | – | – | – | > 100 µM (inactive) | > 100 µM (inactive) | 76 µM (inactive) | 53.1 µM (inactive) | > 100 µM (inactive) | > 100 µM (inactive) | 60.5 µM (inactive) | > 100 µM (inactive) |
| COc1ccccc1NC(=O)C1=C(C)NC(C)=C(C(=O)Nc2ccccc2OC)C1c1ccc([N+](=O)[O-])cc1 | > 100 µM (inactive) | – | – | 49.3 µM (inactive) | 51.6 µM (inactive) | 85.7 µM (inactive) | – | – | 7.23 µM (inactive) | > 100 µM (inactive) | – | – | > 100 µM (inactive) | 74.5 µM (inactive) | > 100 µM (inactive) | > 100 µM (inactive) | 86.1 µM (inactive) | > 100 µM (inactive) | 59.6 µM (inactive) | 86.7 µM (inactive) |
| O=C(Nc1ccccc1)c1cc(S(=O)(=O)Nc2n[nH]c(=O)n2-c2ccccc2)c(S)cc1Cl | > 100 µM (inactive) | > 100 µM (inactive) | > 100 µM (inactive) | > 100 µM (inactive) | > 100 µM (inactive) | > 100 µM (inactive) | > 100 µM (inactive) | > 100 µM (inactive) | > 100 µM (inactive) | > 100 µM (inactive) | > 100 µM (inactive) | > 100 µM (inactive) | > 100 µM (inactive) | > 100 µM (inactive) | > 100 µM (inactive) | > 100 µM (inactive) | > 100 µM (inactive) | > 100 µM (inactive) | > 100 µM (inactive) | – |
| COc1cc2cc(C(=O)N3CC(CCl)c4ccc(N(C)C)cc43)[nH]c2c(OC)c1OC (stereo not drawn) | 0.0153 µM (active) | 0.0303 µM (active) | 0.0861 µM (active) | 0.0675 µM (active) | 0.127 µM (active) | 0.0923 µM (active) | 0.0207 µM (active) | 0.185 µM (active) | 0.048 µM (active) | 0.152 µM (active) | 0.0449 µM (active) | 0.0676 µM (active) | 0.0678 µM (active) | 0.063 µM (active) | 0.198 µM (active) | 0.29 µM (active) | 0.0897 µM (active) | 0.139 µM (active) | 0.0592 µM (active) | – |
| CN(C)Cc1cc(C(=O)/C=C/c2ccc([N+](=O)[O-])cc2)cc(CN(C)C)c1O | 11 µM (inactive) | 17.4 µM (inactive) | 8.83 µM (inactive) | 4.13 µM (inactive) | 11.9 µM (inactive) | 9.23 µM (inactive) | 13.3 µM (inactive) | 11.7 µM (inactive) | 18.9 µM (inactive) | 3.9 µM (inactive) | 26.7 µM (inactive) | 17 µM (inactive) | 16 µM (inactive) | 11.1 µM (inactive) | 7.8 µM (inactive) | 2.97 µM (inactive) | 3.18 µM (inactive) | 14.1 µM (inactive) | 13.9 µM (inactive) | – |
| COc1cc(CC(C)C(C)Cc2ccc(O)c(OC)c2)ccc1O (stereo not drawn) [DIHYDROGUAIARETIC ACID] | 18.5 µM (inactive) | 18.5 µM (inactive) | 11.7 µM (inactive) | 15 µM (inactive) | 14.7 µM (inactive) | 14.1 µM (inactive) | 17.9 µM (inactive) | 17.3 µM (inactive) | 9.29 µM (inactive) | 14.2 µM (inactive) | 16.2 µM (inactive) | 10.8 µM (inactive) | 15.7 µM (inactive) | 9.68 µM (inactive) | 15.4 µM (inactive) | 14.2 µM (inactive) | 14.8 µM (inactive) | 15.8 µM (inactive) | 16.7 µM (inactive) | – |
